Data published in US20220396577A1, “NOVEL SUBSTITUTED 1,3-8-TRIAZASPIRO[4,5] DECANE-2,4-DIONE COMPOUNDS AS INDOLEAMINE 2,3-DIOXYGENASE (IDO) AND/OR TRYPTOPHAN 2,3-DIOXYGENASE (TDO) INHIBITORS” (Merck Sharp & Dohme LLC, priority 2019, published 2022).

Experiments:
[1] = target: MELK (Homo sapiens, UniProt Q14680); test: Off-target kinase panel, ZLYTE: MELK; format: biochemical; conditions: read-out: Estimated IC50 (uM) MELK
Description: (§1) The activity data was obtained in a panel of 265 and 264 for compounds 1-1 and CC-1, respectively, using the ZLYTE and ADAPTA assay methods indicated in the table below.
(§2) The ZLYTE biochemical assay employs a fluorescence-based, coupled-enzyme format and is based on the differential sensitivity of phosphorylated and non-phosphorylated peptides to proteolytic cleavage. The peptide substrate is labeled with two fluorophores—one at each end—that make up a Fluorescence Resonance Energy Transfer (FRET) pair.
(§3) In the primary reaction, the kinase transfers the gamma-phosphate of ATP to a single tyrosine, serine or threonine residue in a synthetic FRET-peptide. In the secondary reaction, a site-specific protease recognizes and cleaves non-phosphorylated FRET-peptides. Phosphorylation of FRET-peptides suppresses cleavage by the Development Reagent. […] A ratiometric method, which calculates the ratio (the Emission Ratio) of donor emission to acceptor emission after excitation of the donor fluorophore at 400 nm, is used to quantitate reaction progress, as shown in the equation below. […]
(§4) Both cleaved and uncleaved FRET-peptides contribute to the fluorescence signals and therefore to the Emission Ratio. The extent of phosphorylation of the FRET-peptide can be calculated from the Emission Ratio. […]
(§5) 10. Read on fluorescence plate reader and analyze the data.

[2] = target: CDK5/P25 (Homo sapiens, UniProt Q00535); test: Off-target kinase panel, ZLYTE: CDK5/P25; format: biochemical; conditions: read-out: Estimated IC50 (uM) CDK5/P25
Description: as §1, §2, §3, §4, §5

[3] = target: IDO1 (Homo sapiens, UniProt P14902); test: IDO1 Human Whole Blood Assay (D); format: cell-based; design: from tissue; host or cells: human whole blood from healthy donors, stimulated with LPS and IFNγ; conditions: LPS and IFNγ, 18 h, read-out: IDO WB IC50, nM (D)
Procedure: Compounds to be tested were serially diluted in ten 3-fold steps in DMSO starting from 10 mM. 3 μL of compound dilutions or DMSO alone were then dispensed from the dilution plate into a polypropylene 96-well assay plate containing 97 μL of RPMI using an Echo 555 acoustic liquid handler (Labcyte). LPS and IFNγ was prepared in RPMI to a 10× of final conc. (1000 ng/mL), final concentration is 100 ng/mL.
Human whole blood was drawn in sodium heparin coated tubes from healthy internal donors. 240 μL of blood was transferred to each of the wells of a v-bottom 96 well plate. 30 μL of a compound was transferred from intermediate dilution plate, and incubated for 15 min. 30 μL of the LPS and IFNγ solution prepared above was then transferred to a blood sample and mixed thoroughly. Plate was covered with breathable membrane and incubated at 37° C. for overnight (18 h).
On day 2 isotope labeled standard of kynurenine and tryptophan was made in water at 10× concentration and 30 μL was added to the blood sample at 3 μM final concentration. […] 20 μL of supernatant was carefully transferred to a 384 well plate contain 40 μL of 0.1% formic acid in water and analyzed by LC/MS/MS.
LC/MS/MS analyses were performed using Thermo Fisher's LX4-TSQ Quantum Ultra system. […] Compounds were titrated and IC50 values were calculated by 4 parameter sigmoidal curve fitting formula.

CDK5/P25, sequence (Q00535 whole entry): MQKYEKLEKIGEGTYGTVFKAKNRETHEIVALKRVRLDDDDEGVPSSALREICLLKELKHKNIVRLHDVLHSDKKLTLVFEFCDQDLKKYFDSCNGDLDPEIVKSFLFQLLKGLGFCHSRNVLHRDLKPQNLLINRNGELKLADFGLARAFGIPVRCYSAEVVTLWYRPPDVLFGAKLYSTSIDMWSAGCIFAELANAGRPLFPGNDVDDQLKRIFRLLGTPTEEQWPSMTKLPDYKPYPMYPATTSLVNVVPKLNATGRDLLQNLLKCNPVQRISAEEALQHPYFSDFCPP
CDK5/P25, sequence (Q15078 99-307 partner limits assumed): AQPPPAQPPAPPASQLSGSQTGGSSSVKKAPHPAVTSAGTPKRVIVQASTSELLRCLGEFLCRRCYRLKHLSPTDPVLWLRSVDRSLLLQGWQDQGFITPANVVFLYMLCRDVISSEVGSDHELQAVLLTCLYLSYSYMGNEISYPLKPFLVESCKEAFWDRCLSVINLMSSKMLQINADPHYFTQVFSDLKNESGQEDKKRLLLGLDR
MELK, sequence (Q14680 whole entry): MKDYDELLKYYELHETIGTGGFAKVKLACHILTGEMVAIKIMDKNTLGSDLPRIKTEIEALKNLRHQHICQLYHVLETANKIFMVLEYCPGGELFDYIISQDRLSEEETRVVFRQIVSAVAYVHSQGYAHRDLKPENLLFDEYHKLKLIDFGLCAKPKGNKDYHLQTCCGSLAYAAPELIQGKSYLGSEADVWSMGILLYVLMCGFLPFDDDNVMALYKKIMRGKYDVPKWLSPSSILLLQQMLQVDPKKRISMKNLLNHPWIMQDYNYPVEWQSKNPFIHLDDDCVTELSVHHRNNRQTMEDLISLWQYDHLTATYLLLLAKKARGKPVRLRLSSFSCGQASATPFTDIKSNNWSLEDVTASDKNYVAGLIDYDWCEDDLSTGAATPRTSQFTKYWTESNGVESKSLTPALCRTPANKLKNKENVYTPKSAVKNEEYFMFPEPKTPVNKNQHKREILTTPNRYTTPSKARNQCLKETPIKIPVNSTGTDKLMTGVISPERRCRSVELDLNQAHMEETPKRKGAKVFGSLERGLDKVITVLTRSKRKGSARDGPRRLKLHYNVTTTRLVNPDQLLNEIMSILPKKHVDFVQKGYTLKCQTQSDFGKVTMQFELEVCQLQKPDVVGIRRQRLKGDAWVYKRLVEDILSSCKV
IDO1, sequence (P14902 whole entry): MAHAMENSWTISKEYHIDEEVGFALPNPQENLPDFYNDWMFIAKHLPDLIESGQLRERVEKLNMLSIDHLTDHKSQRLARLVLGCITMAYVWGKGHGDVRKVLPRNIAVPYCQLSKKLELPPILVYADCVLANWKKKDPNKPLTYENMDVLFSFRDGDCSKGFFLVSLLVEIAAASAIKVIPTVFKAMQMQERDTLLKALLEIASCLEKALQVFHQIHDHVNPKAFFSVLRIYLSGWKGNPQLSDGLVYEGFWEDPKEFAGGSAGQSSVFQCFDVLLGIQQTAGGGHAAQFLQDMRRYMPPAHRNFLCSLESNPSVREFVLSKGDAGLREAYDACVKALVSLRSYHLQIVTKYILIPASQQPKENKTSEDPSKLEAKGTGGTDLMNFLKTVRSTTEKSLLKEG

| Compound | IC50 [1] | IC50 [2] | IC50 [3] |
| --- | --- | --- | --- |
| C[C@@H]1CN(c2cc(Br)cc3[nH]ncc23)CC[C@]12NC(=O)NC2=O (single isomer, unassigned) [Compound 1-1] | > 2 µM | > 2 µM | 345 nM |
| O=C1NC(=O)C2(CCN(c3cc(Cl)cc4[nH]ncc34)CC2)N1 [CC-1] | 1.4 µM | 1.2 µM | 556 nM |
